The text below walks through data of patent publication US20100028889A1, “COMPANION DIAGNOSTIC ASSAYS FOR CANCER THERAPY” (ABBOTT LABORATORIES, priority 2006, published 2010).

Structures are written as SMILES. pEC50: −log10 of the molar value. Like-named read-outs stand apart in the source and are kept apart here.

One experiment deals with JVM-13. The experiment is described as follows: cell cytotoxicity EC50, CellTiter Glo, Mantle Cell Lymphoma cell line. The experiment is classed as cell-based, human. Here is the method: (§1) The SCLC and leukemia/lymphoma cell lines listed below were obtained from the American Type Culture Collection (Manassas, Va.), Deutsche Sammlung von Mikroorganismen und Zellkulturen (DSMZ, Braunsweig, Germany), or were the generous gift from Dr. Louis Staudt (National Cancer Institute) and were cultured as described in Tse, C., Shoemaker, A. R., Adickes, J., et al., “ABT-263: a potent and orally bioavailable Bcl-2 family inhibitor,” Cancer Res 2008; 68: 3421-3428; and Tahir, S. K., Yang, X., Anderson, M. G., et al., “Influence of Bcl-2 family members on the cellular response of small-cell lung cancer cell lines to ABT-737,” Cancer Res 2007; 67: 1176-1183.
(§2) Cells were treated at 10,000 or 50,000 cells per well for adherent or suspension cells, respectively, in 96-well microtiter plates in the presence of 10% human serum for 48 hours with or without ABT-263, in a humidified chamber with 5% CO2. ABT-263 was synthesized as previously described in Tse, C., Shoemaker, A. R., Adickes, J., et al., “ABT-263: a potent and orally bioavailable Bcl-2 family inhibitor,” Cancer Res 2008; 68: 3421-3428; and Oltersdorf, T., Elmore, S. W., Shoemaker, A. R., et al., “An inhibitor of Bcl-2 family proteins induces regression of solid tumours,” Nature 2005; 435: 677-681, and cell cytotoxicity EC50 values were assessed using CellTiter Glo (Promega, Madison Wis.).

The subject of a further experiment is JVM-2. The description is as above. The class given is cell-based, human. The method, then:
as §1, §2

The next experiment has as its system SCLC cell lines. Nature of the experiment: categorisation of the SCLC cell line panel by EC50. The experiment is classed as cell-based, human. Conditions: EC50 less than or equal to 4.1 μM. Here is the method:
as §2
o divide the training set cell lines into sensitive and resistant categories, a bivariate fit curve was generated for the ABT-263 EC50 versus rank and fitted with a smoothing spline (lambda=1), and the maximum increase in the slope was approximately 5 μM for both sets. […]
Division of cell lines into sensitive and resistant categories. […] To identify gene expression patterns that can predict sensitivity to ABT-263, as well as genes that might contribute to resistance to treatment, RNA expression profiles for a panel of SCLC cell lines were determined, as well as a panel of leukemia and lymphoma cell lines. […]

For a further experiment, the system named is NCI-H865. Nature of the experiment: sensitivity of SCLC cell line, procedure of Oltersdorf. The experiment is classed as cell-based. Conditions: Homo sapiens, read-out: sensitivity class by EC50. The method, then:
(§3) The following SCLC cell lines were obtained from ATCC (Manassis, Va.): NCI-H889, NCI-H1963, NCI-H1417, NCI-H146, NCI-H187, DMS53, NCI-H510, NCI-H209, NCI-H211, NCI-H345, NCI-H524, NCI-H69, DMS79, SHP77, NCI-H1688, NCI-H446, NCI-H740, NCI-H1048, NCI-H82, NCI-H196, SW1271, H69AR, NCI-H526, NCI-H865, NCI-H748, NCI-H711, and DMS114. All cells were cultured in the ATCC recommended media at 37° C. in a humidified atmosphere containing 5% CO2. The following leukemia and lymphoma cell lines were obtained from ATCC (Manassis, Va.): MV-4-11, RS4;11, Loucy, KG-1A, DOHH2, Rs11380, CCRF-HSB-2, CCRF-CEM, CEM/C1, Reh, SUP-B15, MOLT-4, SUDHL4, HL-60, RPMI 8226, A3, Daudi, WSU-NHL, Pfeiffer, Jurkat I 9.2, Jurkat, MEG-01, U-937, K-562, and Raji.
(§4) The 27 SCLC cell lines were tested for sensitivity to ABT-737 using the procedure described in Oltersdorf, T., “An inhibitor of Bcl-2 family proteins induces regression of solid tumours”, Nature, 435: 677-681, 2005, with a cell line classified as sensitive if its EC50<5 μM and as resistant if its EC50>5 µM. The sensitive cell line group consisted of NCI-H889, NCI-H1963, NCI-H1417, NCI-H146, DMS 53, NCI-H187, NCI-H510, NCI-H209, NCI-H345, NCI-H526, NCI-H211, NCI-H865, NCI-H524, NCI-H748, DMS 79, NCI-H69, NCI-H711, SHP 77, NCI-H1688, and the resistant cell line group was comprised of NCI-H446, NCI-H740, NCI-H1048, NCI-H82, NCI-H196, SW1271, DMS 114, and NCI-H69AR.

Another experiment deals with NCI-H526. Described as above. The class given is cell-based. Particulars: Homo sapiens, read-out: sensitivity class by EC50. Here is the method:
as §3, §4

The subject of another experiment is NCI-H748. Described as above. The experiment is classed as cell-based. Conditions: Homo sapiens, read-out: sensitivity class by EC50. The method, then: as §3, §4
A further experiment has as its system NCI-H524. The experiment is described as above. The class given is cell-based. Particulars: Homo sapiens, read-out: sensitivity class by EC50. The method, then: as §3, §4
Another experiment has as its system NCI-H711. Described as above. The experiment is classed as cell-based. Conditions: Homo sapiens, read-out: sensitivity class by EC50. The method, then:
as §3, §4

For the compound `CC1(C)CCC(c2ccc(Cl)cc2)=C(CN2CCN(c3ccc(C(=O)NS(=O)(=O)c4ccc(N[C@H](CCN5CCOCC5)CSc5ccccc5)c(S(=O)(=O)C(F)(F)F)c4)cc3)CC2)C1` [ABT-263, N-(4-(4-((2-(4-chlorophenyl)-5,5-dimethyl-1-cyclohex-1-en-1-yl)methyl)piperazin-1-yl)benzoyl)-4-(((1R)-3-(morpholin-4-yl)-1-((phenylsulfanyl)methyl)propyl)amino)-3-((trifluoromethyl)sulfonyl)benzenesulfonamide], the pEC50 is less than 5.32 with JVM-13 (Homo sapiens, JVM13, read-out: Response Designation); 4.89 in the experiment on JVM-13 (JVM13, 10% human serum, 48 hours, read-out: EC50); 5.39 in the experiment with JVM-2 (10% human serum, 48 hours, read-out: EC50); no less than 5.32 with JVM-2 (Homo sapiens, read-out: Response Designation). In the experiment with SCLC cell lines, the “SCLC cell lines categorized as being sensitive” value was 26 out of 36.
As for `CN(C)CC[C@H](CSc1ccccc1)Nc1ccc(S(=O)(=O)NC(=O)c2ccc(N3CCN(Cc4ccccc4-c4ccc(Cl)cc4)CC3)cc2)cc1[N+](=O)[O-]` [ABT-737, N-(4-(4-((4′-chloro(1,1′-biphenyl)-2-yl)methyl)piperazin-1-yl)benzoyl)-4-(((1R)-3-(dimethylamino)-1-((phenylsulfanyl)methyl)propyl)amino)-3-nitrobenzenesulfonamide], the pEC50 with NCI-H865, in the experiment on NCI-H526, in the experiment with NCI-H748, in the experiment on NCI-H524 and with NCI-H711 was greater than 5.30 in each case.
